The source made the active and inactive calls. The calls are words filed in the database; no cut-off is given here.
Legend:
[1] = test system: Ca-Ski; experiment: Antiproliferative activity against human Ca Ski cells assessed as inhibition of cell viability incubated for 24 hrs by CCK8 assay; assay type: functional, cell-based
[2] = test system: C-33-A; experiment: Antiproliferative activity against human C-33-A cells assessed as inhibition of cell growth at 0.3 to 1.2 uM by CCK8 assay; assay type: functional, cell-based; conditions: dose 0.3-1.2 µM, time 6.0 day
[3] = test system: HeLa; experiment: Inhibition of cell migration in human HeLa cells at 0.6 to 1.2 uM measured after 48 hrs by cell scratch assay; assay type: functional, cell-based; conditions: dose 0.6-1.2 µM
[4] = test system: HeLa; experiment: Inhibition of cell migration in human HeLa cells at 0.6 to 1.2 uM measured after 24 hrs by transwell migration assay; assay type: functional, cell-based; conditions: dose 0.6-1.2 µM
[5] = test system: SiHa; experiment: Induction of morphological changes in human SiHa cells assessed as increase in appearance of round cells at 0.5 to 2 uM by microphotographic analysis; assay type: functional, cell-based; conditions: dose 0.5-2 µM
[6] = test system: HeLa; experiment: Induction of apoptosis in human HeLa cells assessed as late apoptotic cells at 0.6 uM incubated for 24 hrs by Annexin V-FITC/PI staining based flow cytometric analysis (reference value: 0.94 %); assay type: functional
[7] = test system: HeLa; experiment: Induction of apoptosis in human HeLa cells assessed as necrotic cells at 0.6 uM preincubated with Z-VAD-FMK for 1 hrs followed by compound addition and measured after 24 hrs by Annexin V-FITC/PI staining based flow cytometric analysis (reference value: 2.16 %); assay type: functional
[8] = test system: HeLa; experiment: Induction of apoptosis in human HeLa cells assessed as viable cells at 1.2 uM preincubated with Z-VAD-FMK for 1 hrs followed by compound addition and measured after 24 hrs by Annexin V-FITC/PI staining based flow cytometric analysis (reference value: 95.8 %); assay type: functional; conditions: read-out: Activity
[9] = test system: Ca-Ski; experiment: Induction of apoptosis in human Ca Ski cells assessed as necrotic cells at 0.5 uM incubated for 24 hrs by Annexin V-FITC/PI staining based flow cytometric analysis (reference value: 3.15 %); assay type: functional
[10] = test system: Ca-Ski; experiment: Induction of apoptosis in human Ca Ski cells assessed as early apoptotic cells at 1 uM preincubated with Z-VAD-FMK for 1 hrs followed by compound addition and measured after 24 hrs by Annexin V-FITC/PI staining based flow cytometric analysis (reference value: 2.91 %); assay type: functional
[11] = test system: HeLa; experiment: Effect on PARP expression level in Bax deficient human HeLa cells at 0.6 to 1.2 uM incubated for 24 hrs by Western blot analysis; assay type: functional, cell-based; conditions: dose 0.6-1.2 µM
[12] = test system: HeLa; experiment: Effect on cleaved PARP expression level in Bax deficient human HeLa cells at 0.6 to 1.2 uM incubated for 24 hrs by Western blot analysis; assay type: functional, cell-based; conditions: dose 0.6-1.2 µM
[13] = test system: HeLa; experiment: Effect on caspase 3 expression level in Bax deficient human HeLa cells at 0.6 to 1.2 uM incubated for 24 hrs by Western blot analysis; assay type: functional, cell-based; conditions: dose 0.6-1.2 µM
[14] = test system: Ca-Ski; experiment: Effect on PARP expression level in p53 deficient human Ca Ski cells at 0.5 to 1 uM incubated for 24 hrs by Western blot analysis; assay type: functional, cell-based; conditions: dose 0.5-1 µM
[15] = test system: Ca-Ski; experiment: Effect on cleaved caspase 3 expression level in p53 deficient human Ca Ski cells at 0.5 to 1 uM incubated for 24 hrs by Western blot analysis; assay type: functional, cell-based; conditions: dose 0.5-1 µM
[16] = test system: HeLa; experiment: Induction of ferroptosis in human HeLa cells assessed as increase in lipid ROS level by measuring rightward shift in fluorescence intensity at 0.6 uM measured after 24 hrs by C11-BODIPY-581/591 staining based flow cytometric analysis; assay type: functional, cell-based
[17] = test system: HeLa; experiment: Effect on GPX4 protein expression level in human HeLa cells at 0.6 uM incubated for 24 hrs by Western blot analysis; assay type: functional, cell-based
[18] = test system: Ca-Ski; experiment: Effect on ACSL4 protein expression level in human Ca Ski cells at 0.5 uM incubated for 24 hrs by Western blot analysis; assay type: functional, cell-based
[19] = test system: HeLa; experiment: Induction of autophagy in human HeLa cells transfected with mRFP-GFP-LC3 plasmid assessed as stable RFP fluorescence at 0.4 to 0.8 uM incubated for 24 hrs by DAPI staining based fluorescence confocal microscopic analysis; assay type: functional, cell-based; conditions: dose 0.4-0.8 µM
[20] = test system: HeLa; experiment: Induction of autophagy in human HeLa cells transfected with mRFP-GFP-LC3 plasmid assessed as appearance of RFP puncta clusters as aggregates in cytoplasm at 0.4 to 0.8 uM incubated for 24 hrs by DAPI staining based fluorescence confocal microscopic analysis; assay type: functional, cell-based; conditions: dose 0.4-0.8 µM
[21] = test system: Ca-Ski; experiment: Induction of autophagolysosome formation in human Ca Ski cells transfected with mRFP-GFP-LC3 plasmid assessed as increase in ratio of mRFP to GFP puncta at 0.3 to 0.6 uM incubated for 24 hrs; assay type: functional, cell-based; conditions: dose 0.3-0.6 µM
[22] = test system: HeLa; experiment: Induction of autophagy in human HeLa cells assessed as increase in p62 level at 0.3 to 1.2 microM incubated for 24 hrs by Western blot analysis; assay type: functional, cell-based; conditions: dose 0.3-1.2 µM
[23] = test system: Ca-Ski; experiment: Induction of autophagy in human Ca Ski cells assessed as increase in p62 level at 0.25 to 1 microM incubated for 24 hrs by Western blot analysis; assay type: functional, cell-based; conditions: dose 0.25-1 µM
[24] = test system: HeLa; experiment: Induction of autophagy in human HeLa cells assessed as increase in LC3-II accumulation at 0.6 uM incubated for 3 to 48 hrs by Western blot analysis; assay type: functional, cell-based; conditions: time 3-48 hrs
[25] = test system: Ca-Ski; experiment: Induction of autophagy in human Ca Ski cells assessed as increase in LC3-II accumulation at 0.5 uM incubated for 3 to 48 hrs by Western blot analysis; assay type: functional, cell-based; conditions: time 3-48 hrs
[26] = test system: HeLa; experiment: Antiproliferative activity against ATG5 deficient human HeLa cells assessed as inhibition of cell viability incubated for 24 hrs by CCK8 assay; assay type: functional, cell-based
[27] = test system: HeLa; experiment: Inhibition of colony formation in ATG7 deficient human HeLa cells at 0.15 to 0.6 uM incubated for 24 hrs by crystal violet staining based analysis; assay type: functional, cell-based; conditions: dose 0.15-0.6 µM
[28] = Toxicity in female BALB/c mouse xenografted with human HeLa cells assessed as effect on body weight at 4 to 8 mg/kg administered every four days and measured after 26 days; assay type: organism-based; conditions: in vivo, 624 h, dose 4-8 mg/kg, time 26 day
[29] = test system: HeLa; experiment: Antitumor activity against human HeLa cells xenografted in female BALB/c mouse assessed as reduction in tumor growth at 4 to 8 mg/kg administered every four days and measured after 26 days; assay type: functional, organism-based; conditions: dose 4-8 mg/kg, time 26.0 day
[30] = Toxicity in female BALB/c mouse xenografted with human HeLa cells assessed as effect on kidney at 4 to 8 mg/kg administered every four days and measured after 26 days by H and E staining based analysis; assay type: organism-based; conditions: in vivo, 624 h, dose 4-8 mg/kg, time 26 day
[31] = Toxicity in female BALB/c mouse xenografted with human HeLa cells assessed as effect on RBC level at 4 to 8 mg/kg administered every four days and measured after 26 days; assay type: organism-based; conditions: in vivo, 624 h, dose 4-8 mg/kg, time 26 day
[32] = Toxicity in female BALB/c mouse xenografted with human HeLa cells assessed as effect on WBC level at 4 to 8 mg/kg administered every four days and measured after 26 days; assay type: organism-based; conditions: in vivo, 624 h, dose 4-8 mg/kg, time 26 day
[33] = test system: HeLa; experiment: Induction of autophagy in human HeLa cells transfected with mRFP-GFP-LC3 plasmid assessed as decrease in GFP fluorescence at 30 uM incubated for 24 hrs by DAPI staining based fluorescence confocal microscopic analysis; assay type: functional, cell-based

With `COc1cccc(Nc2ccnc3cc(OCCCCCOc4ccc5c(Nc6cccc(OC)c6)ccnc5c4)ccc23)c1` the Activity [1] was “Dose-dependent-effect”, the IC50 [1] was 775 nM and the Activity [2] was “Time-dependent-effect”. For the same compound, the inhibition [3] was “Active”, the inhibition [4] was “Active” and the Activity [5] was “Active”. For the same compound, the Activity [6] was 2.27%, the Activity [7] was 1.01% and the viability at 1.2 µM [8] was 93.6%. For the same compound, the Activity [9] was 0.64%, the Activity [10] was 5.56% and the Activity [11] was “inactive”. The Activity [12] was “inactive”, the Activity [13] was “inactive” and the Activity [14] was “inactive”. The Activity [15] was “inactive”, the Activity [16] was “inactive” and the Activity [17] was “Moderate_effect”. The Activity [18] was “Moderate_effect”, the Activity [19] was “Active” and the Activity [20] was “Active”. For the same compound, the Activity [21] was “Active”, the Activity [22] was “Active” and the Activity [23] was “Active”. The Activity [24] was “Active”, the Activity [25] was “Active” and the IC50 [26] was 1630 nM. The inhibition [27] was “Minimal_effect”, the Activity [28] was “Non-toxic” and the Activity [29] was “Active”. The Activity [30] was “Non-toxic”, the Activity [31] was “Non-toxic” and the Activity [32] was “Non-toxic”. The Activity [33] was “Active”.

Source: ChEMBL document CHEMBL6115007, “Synthesis and in vitro and in vivo evaluation of novel bivalent quinolines as antitumor agents via targeting autophagy in cervical cancer” (Eur J Med Chem, 2025)
